One assay has as its target T1, MerTK (Homo sapiens, UniProt Q12866).
T1 construct: endogenous in cells; host or cells: Jurkat cells
T1 sequence (Q12866 21-999): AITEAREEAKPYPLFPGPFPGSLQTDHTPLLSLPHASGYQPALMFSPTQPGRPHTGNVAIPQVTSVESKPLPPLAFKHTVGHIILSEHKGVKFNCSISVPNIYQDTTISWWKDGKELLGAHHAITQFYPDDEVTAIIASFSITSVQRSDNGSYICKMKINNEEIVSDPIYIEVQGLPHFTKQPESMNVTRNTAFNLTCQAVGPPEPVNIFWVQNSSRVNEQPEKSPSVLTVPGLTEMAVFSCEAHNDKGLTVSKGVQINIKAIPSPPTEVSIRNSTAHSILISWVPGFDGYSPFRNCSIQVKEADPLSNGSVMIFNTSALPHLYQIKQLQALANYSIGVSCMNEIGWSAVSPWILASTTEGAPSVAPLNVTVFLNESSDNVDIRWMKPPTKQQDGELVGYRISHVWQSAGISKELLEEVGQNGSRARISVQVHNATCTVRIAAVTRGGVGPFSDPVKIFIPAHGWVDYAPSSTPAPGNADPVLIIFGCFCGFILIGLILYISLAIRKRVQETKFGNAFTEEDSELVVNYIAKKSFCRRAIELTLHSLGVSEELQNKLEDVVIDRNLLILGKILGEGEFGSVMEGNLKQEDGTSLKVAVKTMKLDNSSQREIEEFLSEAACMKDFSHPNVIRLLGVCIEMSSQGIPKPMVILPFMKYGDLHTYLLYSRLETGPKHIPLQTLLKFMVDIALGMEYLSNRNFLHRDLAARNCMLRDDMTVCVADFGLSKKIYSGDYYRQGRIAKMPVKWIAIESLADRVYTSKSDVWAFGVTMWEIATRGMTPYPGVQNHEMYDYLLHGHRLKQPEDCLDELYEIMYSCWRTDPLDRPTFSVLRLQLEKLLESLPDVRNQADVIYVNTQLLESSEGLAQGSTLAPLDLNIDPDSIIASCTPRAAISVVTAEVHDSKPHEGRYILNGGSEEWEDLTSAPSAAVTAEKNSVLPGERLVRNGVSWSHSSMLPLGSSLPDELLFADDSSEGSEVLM
Kind of assay: MerTk degradation in Jurkat cells (Western blot). Type of assay: cell-based. The settings on record: 0.001-1 μM, 4 hour-incubation at 37° C. The essentials:
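MerTK degradation was read by near-infrared Western blot, normalized to actin, in BCA-quantified lysates of Jurkat cells exposed to 0.001-1 μM compound for 4 h at 37 °C.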
With `C[C@H](CC(F)(F)F)Nc1ncc2c(-c3ccc(CN4CCN(CCCO[C@H]5CCN(Cc6ccc7c(c6)n(C)c(=O)n7C6CCC(=O)NC6=O)C5)CC4)cc3)cn([C@H]3CC[C@H](O)CC3)c2n1` (stereo partly drawn) [I-198], the “Jurkat Max % MerTK Degradation” value is recorded as “A (maximum MerTK degradation greater than 50%)”.
`C[C@H](CC(F)(F)F)Nc1ncc2c(-c3ccc(CN4CCN(CCCO[C@H]5CCN(Cc6ccc7c(c6)n(C)c(=O)n7C6CCC(=O)NC6=O)C5)CC4)cc3)cn([C@H]3CC[C@H](O)CC3)c2n1` (stereo partly drawn) [I-210, 3-(3-methyl-2-oxo-5-[[(3R)-3-(3-[4-[(4-[7-[trans-4-hydroxycyclohexy1]-2-[[(2S)-4,4,4-trifluorobutan-2-yl]amino]pyrrolo[2,3-d]pyrimidin-5-yl]phenyl)methyl]piperazin-1-yl]propoxy)pyrrolidin-1-yl]methyl]-1,3-benzodiazol-1-yl)piperidine-2,6-dione]: the “Jurkat Max % MerTK Degradation” value is “C (maximum MerTK degradation less than or equal to 20% (≤20%))”.

The same assay, now with this note: Jurkat, 4 h, 0.001-1 μM, 4 hour-incubation at 37° C., read-out: Jurkat Max % MerTK Degradation.
Regarding `C[C@@H](CC(F)(F)F)Nc1ncc2c(-c3ccc(CN4CCN(C5CC(OCCc6ccc7c(c6)n(C)c(=O)n7C6CCC(=O)NC6=O)C5)CC4)cc3)cn([C@H]3CC[C@H](O)CC3)c2n1` (stereo partly drawn) [I-195, 3-[3-methyl-2-oxo-5-[2-(3-[4-[(4-[7-[trans-4-hydroxycyclohexy1]-2-[[(2S)-4,4,4-trifluorobutan-2-yl]amino]pyrrolo[2,3-d]pyrimidin-5-yl]phenyl)methyl]piperazin-1-yl]cyclobutoxy)ethyl]-1,3-benzodiazol-1-yl]piperidine-2,6-dione], the Dmax lay in the range of 20 to 50%.
The same measure, in the same setting: with `C[C@H](CC(F)(F)F)Nc1ncc2c(-c3ccc(CN4CCN(CCCOC5CCN(Cc6ccc7c(c6)n(C)c(=O)n7C6CCC(=O)NC6=O)CC5)CC4)cc3)cn([C@H]3CC[C@H](O)CC3)c2n1` (stereo partly drawn) [I-196, 3-(3-methyl-2-oxo-5-[[4-(3-[4-[(4-[7-[trans-4-hydroxycyclohexyl]-2-[[(2R)-4,4,4-trifluorobutan-2-yl]amino]pyrrolo[2,3-d]pyrimidin-5-y1]phenyl)methyl]piperazin-1-yl]propoxy)piperidin-1-yl]methyl]-1,3-benzodiazol-1-yl)piperidine-2,6-dione] the figure was over 50%; with `C[C@@H](CC(F)(F)F)Nc1ncc2c(-c3ccc(CN4CCN(CCCOC5CCN(Cc6ccc7c(c6)n(C)c(=O)n7C6CCC(=O)NC6=O)CC5)CC4)cc3)cn([C@H]3CC[C@H](O)CC3)c2n1` (stereo partly drawn) [I-197, 3-(3-methyl-2-oxo-5-[[4-(3-[4-[(4-[7-[trans-4-hydroxycyclohexyl]-2-[[(2S)-4,4,4-trifluorobutan-2-yl]amino]pyrrolo[2,3-d]pyrimidin-5-yl]phenyl)methyl]piperazin-1-yl]propoxy)piperidin-1-yl]methyl]-1,3-benzodiazol-1-y1)piperidine-2,6-dione], over 50%; with `C[C@@H](CC(F)(F)F)Nc1ncc2c(-c3ccc(CN4CCN(CCCO[C@H]5CCN(Cc6ccc7c(c6)n(C)c(=O)n7C6CCC(=O)NC6=O)C5)CC4)cc3)cn([C@H]3CC[C@H](O)CC3)c2n1` (stereo partly drawn) [I-199, 3-(3-methyl-2-oxo-5-[[(3S)-3-(3-[4-[(4-[7-[trans-4-hydroxycyclohexy1]-2-[[(2S)-4,4,4-trifluorobutan-2-yl]amino]pyrrolo[2,3-d]pyrimidin-5-yl]phenyl)methyl]piperazin-1-yl]propoxy)pyrrolidin-1-yl]methyl]-1,3-benzodiazol-1-yl)piperidine-2,6-dione], 20 to 50%.
Still for that read-out and setting: with `C[C@H](CC(F)(F)F)Nc1ncc2c(-c3ccc(CN4CCN(CCCOC5CN(Cc6ccc7c(c6)n(C)c(=O)n7C6CCC(=O)NC6=O)C5)CC4)cc3)cn([C@H]3CC[C@H](O)CC3)c2n1` (stereo partly drawn) [I-200, trans-3-(3-methyl-2-oxo-5-[[3-(3-[4-[(4-[7-[4-hydroxycyclohexyl]-2-[[(2R)-4,4,4-trifluorobutan-2-yl]amino]pyrrolo[2,3-d]pyrimidin-5-yl]phenyl)methyl]piperazin-1-yl]propoxy)azetidin-1-y1]methyl]-1,3-benzodiazol-1-y1)piperidine-2,6-dione; tris(formic acid)] the figure was over 50%; with `C[C@@H](CC(F)(F)F)Nc1ncc2c(-c3ccc(CN4CCN(CCCOC5CN(Cc6ccc7c(c6)n(C)c(=O)n7C6CCC(=O)NC6=O)C5)CC4)cc3)cn([C@H]3CC[C@H](O)CC3)c2n1` (stereo partly drawn) [I-201, 3-(3-methyl-2-oxo-5-[[3-(3-[4-[(4-[7-[trans-4-hydroxycyclohexy1]-2-[[(2S)-4,4,4-trifluorobutan-2-yl]amino]pyrrolo[2,3-d]pyrimidin-5-y1]phenyl)methyl]piperazin-1-yl]propoxy)azetidin-1-yl]methy1]-1,3-benzodiazol-1-yl)piperidine-2,6-dione; tris(formic acid)], 20 to 50%; with `O=C(c1ccc(CNCc2ccc(-c3ccc4c(cnn4CC4CC4)c3)cc2)cc1)N1CCC(C2CCN(Cc3ccc(-c4cn([C@H]5CC[C@H](O)CC5)c5nc(NCCC(F)(F)F)ncc45)cc3)CC2)CC1` [I-202, (4-(((4-(1-(cyclopropylmethyl)-1H-indazol-5-yl)benzyl)amino)methyl)phenyl)(1′-(4-(7-(trans-4-hydroxycyclohexyl)-2-((3,3,3-trifluoropropyl)amino)-7H-pyrrolo[2,3-d]pyrimidin-5-yl)benzyl)-[4,4′-bipiperidin]-1-yl)methanone; formic acid], under 20%.
On the same count and under the same terms, with `CN1CCN(Cc2ccc(-c3ccc(CO[C@H]4CCC[C@@H]4NC(=O)c4cc(-c5cnn(CCOCCOCCOCCCc6ccc7c(c6)n(C)c(=O)n7C6CCC(=O)NC6=O)c5)cnc4N)cc3)cc2)CC1` (stereo partly drawn) [I-203, 2-Amino-5-(1-[2-[2-(2-[3-[1-(2,6-dioxopiperidin-3-yl)-3-methyl-2-oxo-1,3-benzodiazol-5-yl]propoxy]ethoxy)ethoxy]ethyl]pyrazol-4-yl)-N-[(1S,2S)-2-([4-[(4-methylpiperazin-1-yl)methyl]-[1,1-biphenyl]-4-yl]methoxy)cyclopentyl]pyridine-3-carboxamide] the figure was 20 to 50%; with `CN1CCN(Cc2ccc(-c3ccc(CO[C@H]4CCC[C@@H]4NC(=O)c4cc(-c5cnn(CCOCCOCCOCCCc6cccc7c6n(C)c(=O)n7C6CCC(=O)NC6=O)c5)cnc4N)cc3)cc2)CC1` (stereo partly drawn) [I-204, 2-Amino-5-(1-[2-[2-(2-[3-[1-(2,6-dioxopiperidin-3-yl)-3-methyl-2-oxo-1,3-benzodiazol-4-yl]propoxy]ethoxy)ethoxy]ethyl]pyrazol-4-yl)-N-[(1S,2S)-2-([4-[(4-methylpiperazin-1-yl)methyl]-[1,1-biphenyl]-4-yl]methoxy)cyclopentyl]pyridine-3-carboxamide], 20 to 50%.
Consider `CCC[C@H](C)Nc1ncc2c(n1)n([C@H]1CC[C@H](O)CC1)cc2[C@H]1CC[C@@H](CN2CCN(C3CC(OCCc4ccc5c(c4)n(C)c(=O)n5C4CCC(=O)NC4=O)C3)CC2)CC1` (stereo partly drawn) [I-206, 3-(3-methyl-2-oxo-5-[2-[3-(4-[cis-4-[2-[(2S)-pentan-2-ylamino]-7-[trans-4-hydroxycyclohexyl]pyrrolo[2,3-d]pyrimidin-5-yl]cyclohexyl]methyl]piperazin-1-yl)cyclobutoxylethyl]-1,3-benzodiazol-1-y1)piperidine-2,6-dione], for which the Dmax is over 50%.
The same measure, in the same setting: with `CCC[C@H](C)Nc1ncc2c(n1)n([C@H]1CC[C@H](O)CC1)cc2[C@H]1CC[C@@H](CN2CCN(CCCOC3CCN(Cc4ccc5c(c4)n(C)c(=O)n5C4CCC(=O)NC4=O)CC3)CC2)CC1` (stereo partly drawn) [I-207] the figure was over 50%.
Same read-out and setting: the figure for `CCC[C@H](C)Nc1ncc2c(n1)n([C@H]1CC[C@H](O)CC1)cc2[C@H]1CC[C@H](CN2CCN(CCCOC3CCN(Cc4ccc5c(c4)n(C)c(=O)n5C4CCC(=O)NC4=O)CC3)CC2)CC1` (stereo partly drawn) [I-208, 3-[3-methyl-2-oxo-5-([4-[3-(4-[[trans-4-[2-[(2S)-pentan-2-ylamino]-7-[trans-4-hydroxycyclohexyl]pyrrolo[2,3-d]pyrimidin-5-yl]cyclohexyl]methyl]piperazin-1-yl)propoxy]piperidin-1-yl]methyl)-1,3-benzodiazol-1-yl]piperidine-2,6-dione] is over 50%; for `CCC[C@H](C)Nc1ncc2c(n1)n([C@H]1CC[C@H](O)CC1)cc2[C@H]1CC[C@H](CN2CCN(CCCO[C@H]3CCN(Cc4ccc5c(c4)n(C)c(=O)n5C4CCC(=O)NC4=O)C3)CC2)CC1` (stereo partly drawn) [I-211, 3-(3-methyl-2-oxo-5-[[(3S)-3-[3-(4-[[trans-4-[2-[(2S)-pentan-2-ylamino]-7-[trans-4-hydroxycyclohexyl]pyrrolo[2,3-d]pyrimidin-5-yl]cyclohexyl]methyl]piperazin-1-yl)propoxy]pyrrolidin-1-yl]methyl]-1,3-benzodiazol-1-yl)piperidine-2,6-dione] it is over 50%.
